Measurements taken from ChEMBL document CHEMBL5053550, “LipE guided discovery of isopropylphenyl pyridazines as pantothenate kinase modulators” (Bioorg Med Chem, 2021).
≈ marks a conversion by molar mass, not a printed value.

How the values were obtained:
[1] = target: Pantothenate kinase 3 (Homo sapiens, UniProt Q9H999)
Description: Inhibition of human recombinant N-terminal His6-fusion tagged PanK3 expressed in Escherichia coli BL21 (DE3) measured after 10 mins in presence of ATP and D-[14C]-pantothenate by scintillation counting method

[2] = Permeability of the compound by PAMPA assay; type: ADME; conditions: for Papp: read-out: permeability
[3] = Protein binding in rat plasma by LCMS analysis; type: ADME, cell-free
[4] = Half life in mouse liver microsomes; type: ADME, Microsome; conditions: for half-life: liver microsomes
[5] = Half life in […] rat microsomes; type: ADME, Liver, Microsome
[6] = Half life in […] human microsomes; type: ADME, Liver, Microsome
[7] = Half life in human plasma; type: ADME, cell-free
[8] = Permeability across apical to basolateral side in human Caco2 cells; type: ADME, cell-based; conditions: Caco-2, read-out: permeability
[9] = Protein binding in mouse plasma by LCMS analysis; type: ADME, cell-free
[10] = Protein binding in human plasma by LCMS analysis; type: ADME, cell-free
[11] = Solubility of the compound in pH 7.4 by UV spectrometry; type: physicochemical; conditions: buffer

Chain of Pantothenate kinase 3 (Q9H999 whole entry): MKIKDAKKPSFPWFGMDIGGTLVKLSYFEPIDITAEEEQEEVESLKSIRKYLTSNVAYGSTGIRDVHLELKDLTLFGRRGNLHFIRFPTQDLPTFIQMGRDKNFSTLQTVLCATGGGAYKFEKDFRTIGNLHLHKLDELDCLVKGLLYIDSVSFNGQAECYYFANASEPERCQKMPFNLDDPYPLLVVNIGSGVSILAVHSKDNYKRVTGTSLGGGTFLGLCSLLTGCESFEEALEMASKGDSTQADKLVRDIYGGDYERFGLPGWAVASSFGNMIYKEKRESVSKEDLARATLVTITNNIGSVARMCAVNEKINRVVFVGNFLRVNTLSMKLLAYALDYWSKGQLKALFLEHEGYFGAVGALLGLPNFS

SMILES	IC50 [1] [nM]	also measured
CC(C)c1ccc(NC(=O)N2CCN(c3ncccc3C#N)CC2)cc1	1100	
CC(C)c1ccc(NC(=O)N2CCN(c3ccc(Cl)c(Cl)c3)CC2)cc1	1400	
CC(=O)c1ccc(N2CCN(C(=O)Nc3ccc(C(C)C)cc3)CC2)cc1	3300	
CC(C)c1ccc(NC(=O)N2CCN(c3ccc(F)cc3)CC2)cc1	1800	
CC(C)(C)c1ccc(NC(=O)N2CCN(c3ccc(C#N)cn3)CC2)cc1		permeability [2]: 1232 10^-6 cm/s; PPB [3]: 98%; half-life [4]: 16 min; half-life [5]: 31 min; half-life [6]: 8 min; half-life [7]: > 48 h
CC(C)c1ccc(CC(=O)N2CCN(c3ccc(C#N)nn3)CC2)cc1		Papp [2]: 413 ×10⁻⁶ cm/s; Papp A→B [8]: 30.2 ×10⁻⁶ cm/s; fraction unbound ([9]; read-out: PPB (converted)): 0.08; fraction unbound ([3]; read-out: PPB): 0.09; fraction unbound ([10]; read-out: PPB (converted)): 0.07; half-life [4]: 8 min; half-life [6]: 7 min; half-life [7]: > 48 h
CC(C)c1ccc(NC(=O)N2CCN(c3ccc(C#N)nn3)CC2)cc1		solubility [11]: 5.5 µM (≈ 1.93 µg/mL); Papp [2]: 316 ×10⁻⁶ cm/s; PPB [9]: 92%; PPB [3]: 89%; PPB [10]: 92%; t1/2 ([4]; microsomes): 113 min; t1/2 [5]: 294 min; t1/2 [6]: 64 min; half-life [7]: > 48 h
CCCCc1ccc(NC(=O)N2CCN(c3ccc(C#N)cn3)CC2)c(C)c1	1200	
Cc1ccc(N2CCN(C(=O)Nc3ccc(C(C)C)cc3)CC2)nc1	2300	
CC(C)c1ccc(NC(=O)N2CCN(c3cccc(Cl)c3)CC2)cc1	1700	
CC(C)c1ccc(NC(=O)N2CCN(c3ccccn3)CC2)cc1	5300	
CC(C)c1ccc(NC(=O)N2CCN(c3ccc(N)cn3)CC2)cc1	> 10000	

Further molecules by falling IC50 [1], results first:

IC50 [1] [nM]	SMILES	also measured
990	CC(C)c1ccc(C(O)C(=O)N2CCN(c3ccc(C#N)cn3)CC2)cc1 (stereo unspecified)	
770	CC(C)c1ccc(NC(=O)N2CCN(c3ccc(C(F)(F)F)cn3)CC2)cc1	
640	CC(C)c1ccc(NC(=O)N2CCN(c3ccc(C#N)cn3)CC2)cc1	
580	CC(C)c1ccc(NC(=O)N2CCN(c3ccc(C#N)cc3)CC2)cc1	
490	CC(C)Cc1ccc(NC(=O)N2CCN(c3ccc(C#N)cn3)CC2)cc1	
420	CC(C)c1ccc(OC(=O)N2CCN(c3ccc(C#N)cn3)CC2)cc1	
270	CC(C)c1ccc(CC(=O)N2CCN(c3nccc(Cl)n3)CC2)cc1	
230	CC(C)c1ccc(NC(=O)N2CCN(c3cc(C#N)ccn3)CC2)cc1	
220	CC(C)c1ccc(NC(=O)N2CCN(c3ccc(Cl)cn3)CC2)cc1	
220	CC(C)c1ccc(NC(=O)N2CCN(c3ccc(Br)cn3)CC2)cc1	
200	N#Cc1ccc(N2CCN(C(=O)Cc3ccc(C4CC4)cc3)CC2)nc1	
170	CC(C)c1ccc(NC(=O)N2CCN(c3cnc(C#N)nc3)CC2)cc1	
160	CC(C)c1ccc(NC(=O)N2CCN(c3ncc(Br)cn3)CC2)cc1	
140	CC(C)c1ccc(NC(=O)N2CCN(c3nccc(C#N)n3)CC2)cc1	
